{"source": "patent US8703195B2", "about": "“Method for solubilising, dispersing and stabilising of substances, products manufactured according to the method as well as the use thereof” (Biorem AG, priority 2006, dated 2014)", "key": {"[1]": {"settings": "dissolved in water; cited from earlier work"}, "[2]": {"test": "Bioavailability of coenzyme Q10", "format": "in vivo", "settings": "oral administration, solubilised with poloxamer and resin or tocopherol by this method"}, "[3]": {"settings": "unformulated active agent, in practice; cited from earlier work"}, "[4]": {"settings": "cited from earlier work"}, "[5]": {"settings": "pH 5; cited from earlier work"}}, "note": "Like-named read-outs stand apart in the source and are kept apart here.", "data": [{"molecule": "O=C1O[C@H]([C@@H](O)CO)C(O)=C1O", "note": "[Vitamin C, ascorbic acid]", "values": [{"measurement": "time until solution in water becomes light yellow", "setting": "[1]", "result": "2 to 3", "unit": "days"}]}, {"molecule": "COC1=C(OC)C(=O)C(C/C=C(\\C)CC/C=C(\\C)CC/C=C(\\C)CC/C=C(\\C)CC/C=C(\\C)CC/C=C(\\C)CC/C=C(\\C)CC/C=C(\\C)CC/C=C(\\C)CCC=C(C)C)=C(C)C1=O", "note": "[coenzyme Q10]", "values": [{"measurement": "bioavailability", "setting": "[2]", "result": "about 85%"}, {"measurement": "bioavailability", "setting": "[3]", "result": 10, "unit": "%"}, {"measurement": "solubility in water", "setting": "[4]", "result": "not water-soluble"}]}, {"molecule": "Abamectin", "values": [{"measurement": "stability against hydrolysis in aqueous solutions", "setting": "[5]", "result": "stable"}]}]}
